Three compounds from US8871751B2, “Compositions and methods relating to nuclear hormone and steroid hormone receptors including inhibitors of estrogen receptor alpha-mediated gene expression and inhibition of breast cancer” (The Board of Trustees of the University of Illinois, priority 2008, dated 2014) can be followed below.

The experiment addresses T1, human ERα binding to flcERE (Homo sapiens, UniProt P03372).
T1 construct: Full-length FLAG-tagged human ERα was expressed and purified as described previously (27); FLAG; made in house
T1 sequence (P03372 1-595): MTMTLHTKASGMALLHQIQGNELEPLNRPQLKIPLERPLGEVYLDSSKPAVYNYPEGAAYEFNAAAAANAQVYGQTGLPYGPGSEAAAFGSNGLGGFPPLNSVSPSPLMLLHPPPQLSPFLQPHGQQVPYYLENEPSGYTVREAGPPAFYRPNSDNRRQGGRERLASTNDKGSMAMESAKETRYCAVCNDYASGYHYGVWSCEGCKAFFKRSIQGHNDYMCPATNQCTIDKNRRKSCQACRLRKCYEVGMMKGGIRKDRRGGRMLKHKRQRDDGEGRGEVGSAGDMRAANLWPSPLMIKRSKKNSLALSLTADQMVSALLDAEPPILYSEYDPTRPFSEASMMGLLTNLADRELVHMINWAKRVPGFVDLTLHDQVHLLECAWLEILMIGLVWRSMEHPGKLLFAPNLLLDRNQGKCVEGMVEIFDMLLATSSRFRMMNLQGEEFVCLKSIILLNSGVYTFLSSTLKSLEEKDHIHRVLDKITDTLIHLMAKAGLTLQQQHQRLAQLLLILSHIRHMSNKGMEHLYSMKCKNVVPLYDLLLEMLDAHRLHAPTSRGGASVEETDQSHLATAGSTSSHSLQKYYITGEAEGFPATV
Briefly: FAMA: inhibition of ERα binding to flcERE. The conditions noted are these: for inhibition of binding of ERα to the flcERE: 5 μM TPBM; for IC50: FAMA. On the procedure: Prior to screening, the 10 mM library stocks were diluted to produce replica libraries in 384-well plates containing each small molecule at 0.25 mM (in DMSO). In our initial studies we were concerned that forming the flcERE-ERα complex first and then adding the candidate small molecule inhibitors would miss small molecules that bind at the interface. We therefore screened using the “sequential” method in which the candidate small molecules were first incubated with ERα and followed by addition of the flcERE. The assay for binding of ERα to the flcERE is a modification of our earlier assay (27). Assays were carried out at room temperature in black wall 384-well microplates (Greiner/Bio-One) in a total volume of 10 μl in buffer containing 20 mM Tris pH 7.5, 10% glycerol, 0.2 mM EDTA, 2 mM DTT, 100 mM KCl, 0.5 ng/μl poly dl:dC, […] bovine serum albumin and 100 nM 17β-estradiol (E2). For high throughput screening, a master mix without ERα and probe was prepared at 4° C. The master mix was divided into 2 parts. ERα was added to one part to 5 nM in the final assays. 7 μl of the ERα-containing mix was then dispensed into each well of a 384-well plate on ice. 100 nl of the compounds being tested was then added using a pin-transporter (V & P Scientific, Inc, CA) to a final concentration of 2.5 μM. The samples were mixed using the pin-transporter and sedimented by centrifugation for 2 min. at 4° C. and incubated on ice for 10 min. The flcERE probe was added to the other aliquot of the mix to 1 nM. 3 μl of the mix containing the flcERE probe was added to each well containing ERα and the test compound. The samples were mixed using the pin-transporter, the plates were briefly centrifuged and incubated at room temperature for 10 min. and fluorescence anisotropy (FA) was measured using a BMG PheraStar (BMG Labtech) microplate reader (module: 485 520) with excitation at 485λ and emission at 520λ. To identify small molecules that were highly fluorescent, or quench fluorescence, fluorescence intensity was also measured.
Dose response curves for selected compounds were carried out as described for the HTS screen except that each well contained the indicated concentration of test compound. PR assays were carried out in the same buffer used for ERα assays and contained 1 nM flcPRE and 11 nM PR-B and 100 nM progesterone. The buffer used for AR was similar but also contained 5 μM ZnCl, 5 mM NaF, 0.6 μM CHAPS and 100 nM dihydrotestosterone. AR assays contained 1 nM flcARE and 50 nM full-length wild-type AR.

[1] abbreviates: binding to HRE, 5 concentrations 0.5-10 μM, sequential method, read-out: IC50 ERα.

SMILES strings stand for the structures. “And” between values parts separate entries of the source, which are not always exact repeats. Equal values may be shown once. Read-outs that look alike come from different tables or passages of the source.

For the compound `Cn1c(=O)c2nc(CSCc3ccccc3)[nH]c2n(C)c1=O` [Compound 95910, 8-Benzylsulfanylmethyl-1,3-dimethyl-3,7-dihydro-purine-2,6-dione], the “inhibition of binding of ERα to the flcERE” value is, setting by setting: (absence of zinc) 76±7%; (presence of 50 μM zinc) 68±6%. The IC50 runs as follows: under setting [1], 3 µM; (read-out: IC50 for inhibition of ERα binding to the flcERE) ~3 µM and 3.5 µM.
On to `CN1CCC(C#N)c2ccccc21` (stereo not drawn) [Compound 1529], for which the IC50 under setting [1] amounted to 4 µM.
Same read-out and setting: then `CN(C)CCCn1c2c3ccccc3ccc2c2oc(=O)c3ccccc3c21` [Compound 638432], with 2.5 µM.
